Data from patent publication US9907312B2, “Compositions comprising a biological control agent and an insecticide” (priority 2012, dated 2018).

Key:
Format in all cases: in vivo
Phaedon cochleariae = Phaedon cochleariae spray test, Chinese cabbage leaf-disks; details: mortality after 6 d
Procedure: (§1) For all examples the efficiencies of the compositions comprising at least one BCA and at least one specific insecticide has been determined by the “Colby-formula”: The expected efficacy of a given combination of two compounds is calculated as follows (see Colby, S. R., “Calculating Synergistic and antagonistic Responses of Herbicide Combinations”, Weeds 15, pp. 20-22, 1967):
(§2) If • X is the efficacy expressed in % mortality of the untreated control for test compound A at a concentration of m ppm respectively m g/ha, • Y is the efficacy expressed in % mortality of the untreated control for test compound B at a concentration of n ppm respectively n g/ha, • E is the efficacy expressed in % mortality of the untreated control using the mixture of A and B at m and n ppm respectively m and n g/ha, then is E=X+Y−(X×Y/100)
(§3) If the observed insecticidal efficacy of the combination is higher than the one calculated as “E”, then the combination of the two compounds is more than additive, i.e., there is a synergistic effect.
(§4) To produce a suitable preparation of active compound, 1 part by weight of active compound is mixed with the stated amount of solvent and emulsifier, and the concentrate is diluted with emulsifier-containing water to the desired concentration. To produce a suitable preparation of a spore suspension the spores are diluted with emulsifier-containing water to the desired concentration.
Chinese cabbage (Brassica pekinensis) leaf-disks are sprayed with a preparation of the active ingredient of the desired concentration. Once dry, the leaf disks are infested with mustard beetle larvae (Phaedon cochleariae).
After the specified period of time, mortality in % is determined. 100% means all beetle larvae have been killed and 0% means none of the beetle larvae have been killed. The mortality values determined thus are recalculated using the Colby-formula (see above).

Nilaparvata lugens = Nilaparvata lugens spray test (NILALU), rice plants; details: 1 ppm; mortality after 3 d
Procedure: as §1, §2, §3
To produce a suitable preparation of active compound, 1 part by weight of active compound is mixed with the stated amount of solvent and emulsifier, and the concentrate is diluted with emulsifier-containing water to the desired concentration. […]
After the specified period of time, mortality in % is determined. […]

Myzus persicae = Myzus persicae spray test (MYZUPE), Chinese cabbage leaf-disks; details: mortality after 6 d
Procedure: as §1, §2, §3, §4
Chinese cabbage (Brassica pekinensis) leaf-disks infected with all instars of the green peach aphid (Myzus persicae), are sprayed with a preparation of the active ingredient of the desired concentration.
After the specified period of time, mortality in % is determined. 100% means all aphids have been killed; 0% means none of the aphids have been killed. The mortality values determined thus are recalculated using the Colby-formula (see above).

Spodoptera frugiperda = Spodoptera frugiperda spray test, cotton leaves; details: 0.8 ppm; mortality after 1 d
Procedure: as §1, §2
(§5) If the observed insecticidal efficacy of the combination is higher than the one calculated as “E”, then the combination of the two compounds is more than additive, i.e., there is a synergistic effect. […]
(§6) After the specified period of time, mortality in % is determined. […] The mortality values determined thus are recalculated using the Colby-formula (see above).

Tetranychus urticae = Tetranychus urticae spray test, OP-resistant, French beans; details: 0.032 g ai/ha; mortality after 2 d
Procedure: as §1, §2, §5, §6

`N#Cc1nn(-c2c(Cl)cc(C(F)(F)F)cc2Cl)c(N)c1[S+]([O-])C(F)(F)F` (stereo not drawn) [Fipronil (I95), Fipronil] was tested, and the “Efficacy in % after 6d” value (Phaedon cochleariae; 0.25 g ai/ha) was 33%, the “Efficacy in % after 3d” value (Nilaparvata lugens) was 0% and the “Efficacy in % after 6d” value (Myzus persicae; 4 g/ha) was 0%. The “Efficacy in % after 6d” value (Myzus persicae; 100 g/ha) was 0%.

For `CNC(=O)Oc1cc(C)c(SC)c(C)c1` [Methiocarb (I15), Methiocarb], the “Efficacy in % after 6d” value (Phaedon cochleariae; 20 g ai/ha) was 0% and the “Efficacy in % after 6d” value (Myzus persicae; 500 g/ha) was 0%.

In the case of `CS/C(C)=N\OC(=O)N(C)SN(C)C(=O)O/N=C(\C)SC` [Thiodicarb (I21), Thiodicarb], the “Efficacy in % after 1d” value (Spodoptera frugiperda) is reported as 50%.

For Abamectin [Abamectin (I152)], the “Efficacy in % after 2d” value (Tetranychus urticae) was 0% and the “Efficacy in % after 6d” value (Phaedon cochleariae; 0.8 g ai/ha) was 0%.
